Assay results as given in patent US11197914B2, “GLP-1R/GCGR dual target agonist polypeptide for treatment of fatty liver diseases, hyperlipemia and arteriosclerosis” (Shenzhen Turier Biotech Co., Ltd., priority 2016, dated 2021).
*1 amine or outer side, *2 acyl side, *3 side chain or, on linkers, in order; H or OH if unused. Primed or numbered codes have the meaning given here. Where no end group is shown, it is not given here. Side-chain parts run from the residue outwards. [ ]: non-standard residue; d: D form. The star is where a group is joined. C18 diacid = O=C(O)CCCCCCCCCCCCCCCCC(=O)*; C16 diacid = O=C(O)CCCCCCCCCCCCCCC(=O)*; γGlu = O=C(O)[C@H](CCC(=O)[*:2])N[*:1]; Stearoyl = CCCCCCCCCCCCCCCCCC(=O)*; Palmitoyl = CCCCCCCCCCCCCCCC(=O)*; PEG2′ = not defined here; Aib = CC(C)(N)C(=O)O

Columns and labels:
[1] = test system: Hepatic stellate cell strain LX-2; assay: In vitro inhibition of hepatic fibrosis: expression of LX-2 cell activation marker α-SMA (Western Blot, α-SMA/β-actin); type: cell-based, human; conditions: LX-2 cells; for Relative expression of α-SMA (α-SMA/β-actin, %): 48 hours, negative control = 100%; for Effect on expression of α-SMA (in words): 1 μM and 5 μM
Experimental: Hepatic stellate cell strain LX-2 was selected to study and observe the effect of different doses of test substances on the expression of LX-2 cell activation marker […]. Hepatic stellate cell LX-2 was laid on 35 mm cell culture plate, cultured with DMEM (high glucose)+10% FBS+1% double-antibody culture medium (Thermo Fisher), placed overnight when the cells grew to 70% convergence at 37° C. and under the condition of 5% CO2, and treated with the above compounds 1-37 (dissolved in PBS) for 48 hours the next day morning to extract cell protein, carry out Western Blot, and take β-actin as internal reference and analyze the expression quantities of α-SMA and β-actin by a gray level of Image J 1.50i. PBS with the same volume as that in experimental group was added in negative control. […] The integrating gray level of α-SMA/β-actin in the negative control group was 100% to analyze the in vitro inhibition activity of hepatic fibrosis of tested polypeptide.

[2] = test system: CCl4-induced hepatic fibrosis mice; assay: CCl4-induced hepatic fibrosis in mice; type: in vivo, C57 mice; conditions: 500 μg/kg subcutaneous once every two days, 6 weeks
Experimental: 6-8-week-old C57 mice with body weight of 20-25 g at SPF level were provided by Guangdong Medical Laboratory Animal Center and tested by SPF level laboratory in Laboratory Animal Center of Guangdong Pharmaceutical University. C57 mice were divided into control group, hepatic fibrosis model group and treatment group, 8 mice for each group. A mouse was subject to intraperitoneal injection with 20% CCl4 (2 mL/kg, diluted with olive oil at ratio of 1:4) twice a week for continuous 6 weeks to form a stable hepatic fibrosis animal model. For the treatment group, one of subcutaneous injection compounds 2, 6 and 22 with 500 μg/kg of body weight was used respectively once every two days for continuous 6 weeks. Olive oil with same volume and same frequency was administered for the control group and stopped until the end of 6-week experiment. After the end of the experiment, the mice were subject to anesthesia to collect serum and liver specimens. The liver was fixed with 10% formalin and embedded with paraffin.

| Substance | Relative expression of α-SMA (α-SMA/β-actin, %) ([1]; 1 μM) | other results |
| --- | --- | --- |
| His-(D-Ser)-Gln-Gly-Thr-Phe-Thr-Ser-Asp-Tyr-Ser-Lys-Tyr-Leu-Asp-Ser-Lys(PEG2-PEG2-γGlu-CO(CH2)16CH3)-Ala-Ala-His-Asp-Phe-Val-Glu-Trp-Leu-Leu-Asn-Gly-Gly-Pro-Ser-Ser-Gly-Ala-Pro-Pro-Pro-Ser-NH2 (H[dS]QGTFTSDYSKYLDSK([PEG2′-PEG2′-γGlu-Stearoyl])AAHDFVEWLLNGGPSSGAPPPS-NH2) [Compound 22] | 90.56% | ALT level of serum [2]: obviously reduce; CCl4-induced liver injury and fibrosis stage (HE, Sirius Red) [2]: obviously improved |
| His-Aib-Gln-Gly-Thr-Phe-Thr-Ser-Asp-Lys(PEG2-PEG2-γGlu-CO(CH2)16CO2H)-Ser-Lys-Tyr-Leu-Asp-Aib-Arg-Arg-Ala-Gln-Asp-Phe-Val-Gln-Trp-Leu-Leu-Asp-Gly-Gly-Pro-Ser-Ser-Gly-Ala-Pro-Pro-Pro-Ser-NH2 (H[Aib]QGTFTSDK([PEG2′-PEG2′-γGlu-C18 diacid])SKYLD[Aib]RRAQDFVQWLLDGGPSSGAPPPS-NH2) [Compound 19] | 43.46% | Inhibition of LX-2 cell activation marker α-SMA (in words, from Table 2) [1]: obviously reduce; Effect on expression of α-SMA (in words) ([1]; 0.1 μM): reduce the expression of α-SMA under all concentrations; Relative expression of α-SMA (α-SMA/β-actin, %) ([1]; 0.1 μM): 71.48%; Relative expression of α-SMA (α-SMA/β-actin, %) ([1]; 5 μM): 39.75% |
| His-Aib-Gln-Gly-Thr-Phe-Thr-Ser-Asp-Lys(PEG2-PEG2-γGlu-CO(CH2)14CO2H)-Ser-Lys-Tyr-Leu-Asp-Aib-Arg-Arg-Ala-Gln-Asp-Phe-Val-Gln-Trp-Leu-Leu-Asp-Gly-Gly-Pro-Ser-Ser-Gly-Ala-Pro-Pro-Pro-Ser-NH2 (H[Aib]QGTFTSDK([PEG2′-PEG2′-γGlu-C16 diacid])SKYLD[Aib]RRAQDFVQWLLDGGPSSGAPPPS-NH2) [Compound 11] | 96.78% | – |
| His-(D-Ser)-Gln-Gly-Thr-Phe-Thr-Ser-Asp-Lys(PEG2-PEG2-γGlu-CO(CH2)16CO2H)-Ser-Lys-Tyr-Leu-Asp-Aib-Arg-Arg-Ala-Gln-Asp-Phe-Val-Gln-Trp-Leu-Met-Asn-Thr-Gly-Gly-Pro-Ser-Ser-Gly-Ala-Pro-Pro-Pro-Ser-NH2 (H[dS]QGTFTSDK([PEG2′-PEG2′-γGlu-C18 diacid])SKYLD[Aib]RRAQDFVQWLMNTGGPSSGAPPPS-NH2) [Compound 5] | 67.94% | Inhibition of LX-2 cell activation marker α-SMA (in words, from Table 2) [1]: obviously reduce; Effect on expression of α-SMA (in words) ([1]; 0.1 μM): reduce the expression of α-SMA under all concentrations; Relative expression of α-SMA (α-SMA/β-actin, %) ([1]; 0.1 μM): 66.04%; Relative expression of α-SMA (α-SMA/β-actin, %) ([1]; 5 μM): 33.45% |
| His-(D-Ser)-Gln-Gly-Thr-Phe-Thr-Ser-Asp-Tyr-Ser-Lys(PEG2-PEG2-γGlu-CO(CH2)14CH3)-Lys-Leu-Asp-Aib-Arg-Arg-Ala-Gln-Asp-Phe-Val-Gln-Trp-Leu-Met-Asn-Thr-Gly-Gly-Pro-Ser-Ser-Gly-Ala-Pro-Pro-Pro-Ser-NH2 (H[dS]QGTFTSDYSK([PEG2′-PEG2′-γGlu-Palmitoyl])KLD[Aib]RRAQDFVQWLMNTGGPSSGAPPPS-NH2) [Compound 1] | 75.26% | – |
| His-(D-Ser)-Gln-Gly-Thr-Phe-Thr-Ser-Asp-Tyr-Ser-Lys-Tyr-Leu-Asp-Ser-Lys(PEG2-PEG2-γGlu-CO(CH2)16CH3)-Ala-Ala-His-Asp-Phe-Val-Glu-Trp-Leu-Leu-Arg-Ala-NH2 (H[dS]QGTFTSDYSKYLDSK([PEG2′-PEG2′-γGlu-Stearoyl])AAHDFVEWLLRA-NH2) [Compound 25] | 93.34% | – |
| His-(D-Ser)-Gln-Gly-Thr-Phe-Thr-Ser-Asp-Tyr-Ser-Lys(PEG2-PEG2-CO(CH2)14CH3)-Lys-Leu-Asp-Aib-Arg-Arg-Ala-Gln-Asp-Phe-Val-Gln-Trp-Leu-Met-Asn-Thr-Gly-Gly-Pro-Ser-Ser-Gly-Ala-Pro-Pro-Pro-Ser-NH2 (H[dS]QGTFTSDYSK([PEG2′-PEG2′-Palmitoyl])KLD[Aib]RRAQDFVQWLMNTGGPSSGAPPPS-NH2) [Compound 9] | 75.86% | – |
| His-(D-Ser)-Gln-Gly-Thr-Phe-Thr-Ser-Asp-Tyr-Ser-Lys-Tyr-Leu-Asp-Glu-Lys-Ala-Ala-Lys(PEG2-PEG2-γGlu-CO(CH2)16CO2H)-Glu-Phe-Ile-Glu-Trp-Leu-Leu-Arg-Ala-NH2 (H[dS]QGTFTSDYSKYLDEKAAK([PEG2′-PEG2′-γGlu-C18 diacid])EFIEWLLRA-NH2) [Compound 18] | 75.60% | – |
| His-(D-Ser)-Gln-Gly-Thr-Phe-Thr-Ser-Asp-Tyr-Ser-Lys-Tyr-Leu-Asp-Aib-Lys(PEG2-PEG2-γGlu-CO(CH2)16CO2H)-Arg-Ala-Gln-Asp-Phe-Val-Gln-Trp-Leu-Met-Asn-Thr-Gly-Gly-Pro-Ser-Ser-Gly-Ala-Pro-Pro-Pro-Ser-NH2 (H[dS]QGTFTSDYSKYLD[Aib]K([PEG2′-PEG2′-γGlu-C18 diacid])RAQDFVQWLMNTGGPSSGAPPPS-NH2) [Compound 7] | 73.52% | – |
| His-(D-Ser)-Gln-Gly-Thr-Phe-Thr-Ser-Asp-Tyr-Ser-Lys-Tyr-Leu-Asp-Lys(PEG2-PEG2-γGlu-CO(CH2)16CO2H)-Arg-Arg-Ala-Gln-Asp-Phe-Val-Gln-Trp-Leu-Met-Asn-Thr-Gly-Gly-Pro-Ser-Ser-Gly-Ala-Pro-Pro-Pro-Ser-NH2 (H[dS]QGTFTSDYSKYLDK([PEG2′-PEG2′-γGlu-C18 diacid])RRAQDFVQWLMNTGGPSSGAPPPS-NH2) [Compound 34] | 88.18% | – |
| His-(D-Ser)-Gln-Gly-Thr-Phe-Thr-Ser-Asp-Tyr-Ser-Lys-Tyr-Leu-Asp-Aib-Lys(PEG2-PEG2-γGlu-CO(CH2)14CH3)-Arg-Ala-Gln-Asp-Phe-Val-Gln-Trp-Leu-Met-Asn-Thr-Gly-Gly-Pro-Ser-Ser-Gly-Ala-Pro-Pro-Pro-Ser-NH2 (H[dS]QGTFTSDYSKYLD[Aib]K([PEG2′-PEG2′-γGlu-Palmitoyl])RAQDFVQWLMNTGGPSSGAPPPS-NH2) [Compound 33] | 95.45% | – |
| His-(D-Ser)-Gln-Gly-Thr-Phe-Thr-Ser-Asp-Tyr-Ser-Lys-Tyr-Leu-Asp-Ser-Lys(PEG2-PEG2-γGlu-CO(CH2)16CO2H)-Ala-Ala-His-Asp-Phe-Val-Glu-Trp-Leu-Leu-Arg-Ala-NH2 (H[dS]QGTFTSDYSKYLDSK([PEG2′-PEG2′-γGlu-C18 diacid])AAHDFVEWLLRA-NH2) [Compound 17] | 75.38% | – |
| His-(D-Ser)-Gln-Gly-Thr-Phe-Thr-Ser-Asp-Tyr-Ser-Lys(PEG2-PEG2-CO(CH2)16CH3)-Lys-Leu-Asp-Aib-Arg-Arg-Ala-Gln-Asp-Phe-Val-Gln-Trp-Leu-Met-Asn-Thr-Gly-Gly-Pro-Ser-Ser-Gly-Ala-Pro-Pro-Pro-Ser-NH2 (H[dS]QGTFTSDYSK([PEG2′-PEG2′-Stearoyl])KLD[Aib]RRAQDFVQWLMNTGGPSSGAPPPS-NH2) [Compound 3] | 82.25% | – |
| His-(D-Ser)-Gln-Gly-Thr-Phe-Thr-Ser-Asp-Tyr-Ser-Lys-Tyr-Leu-Asp-Glu-Lys-Ala-Ala-Lys(PEG2-PEG2-γGlu-CO(CH2)16CH3)-Glu-Phe-Ile-Glu-Trp-Leu-Leu-Arg-Ala-NH2 (H[dS]QGTFTSDYSKYLDEKAAK([PEG2′-PEG2′-γGlu-Stearoyl])EFIEWLLRA-NH2) [Compound 24] | 82.42% | – |
| His-Aib-Gln-Gly-Thr-Phe-Thr-Ser-Asp-Lys(PEG2-PEG2-γGlu-CO(CH2)16CH3)-Ser-Lys-Tyr-Leu-Asp-Glu-Arg-Arg-Ala-Gln-Asp-Phe-Val-Gln-Trp-Leu-Leu-Asp-Gly-Gly-Pro-Ser-Ser-Gly-Ala-Pro-Pro-Pro-Ser-NH2 (H[Aib]QGTFTSDK([PEG2′-PEG2′-γGlu-Stearoyl])SKYLDERRAQDFVQWLLDGGPSSGAPPPS-NH2) [Compound 14] | 92.80% | – |
| His-(D-Ser)-Gln-Gly-Thr-Phe-Thr-Ser-Asp-Tyr-Ser-Lys-Tyr-Leu-Asp-Glu-Lys-Ala-Ala-Lys(PEG2-PEG2-γGlu-CO(CH2)14CH3)-Glu-Phe-Ile-Glu-Trp-Leu-Leu-Asn-Gly-Gly-Pro-Ser-Ser-Gly-Ala-Pro-Pro-Pro-Ser-NH2 (H[dS]QGTFTSDYSKYLDEKAAK([PEG2′-PEG2′-γGlu-Palmitoyl])EFIEWLLNGGPSSGAPPPS-NH2) [Compound 29] | 89.36% | – |
| His-(D-Ser)-Gln-Gly-Thr-Phe-Thr-Ser-Asp-Tyr-Ser-Lys-Tyr-Leu-Asp-Lys(PEG2-PEG2-CO(CH2)16CO2H)-Arg-Arg-Ala-Gln-Asp-Phe-Val-Gln-Trp-Leu-Met-Asn-Thr-Gly-Gly-Pro-Ser-Ser-Gly-Ala-Pro-Pro-Pro-Ser-NH2 (H[dS]QGTFTSDYSKYLDK([PEG2′-PEG2′-C18 diacid])RRAQDFVQWLMNTGGPSSGAPPPS-NH2) [Compound 35] | 61.28% | Inhibition of LX-2 cell activation marker α-SMA (in words, from Table 2) [1]: obviously reduce |
